Measured values from patent publication US8652439B2, “Compositions of HSP60 peptides and viral antigens for vaccination and diagnosis” (priority 2005, dated 2014).

Assays:
splenocytes [1] = assay: Proliferation of splenocytes from mice immunized with p15 conjugates, stimulated in vitro with p15; format: in vivo; conditions: spleens 10 days after immunization; p15 25 μg/ml, 3 days
Protocol: (§1) Mice were immunized with the following peptides as described in Example 8 using the following peptides: p15 (SEQ ID NO:11), p32 (SEQ ID NO:13), Ec27-p15 ([…], SEQ ID NO:77), and Mock-p15 ([…], SEQ ID NO:80—the p431 peptide fused to p15).
(§2) Spleens were harvested 10 days after the immunization and splenocytes were cultured with p15 (25 μg/ml) for 3 days. Cell proliferation and IFNγ levels in the supernatants of spleen cell cultures were measured. Results are the average of 3 independent proliferation experiments. Ec27-Ep15* and Ec27-Ep15** are two identical but independent groups in the same experiment.

IFN-γ = IFN-γ secretion of splenocytes from mice immunized with p15 conjugates, stimulated in vitro with p15; format: in vivo; conditions: spleens 10 days after immunization; p15 25 μg/ml, 3 days
Protocol: as §1, §2

BALB/c lymph node cells = assay: Proliferative response of lymph node cells to overlapping GroEL peptides after immunization with E. coli bacteria or GroEL; format: cell-based, BALB/c mice; conditions: mice immunized with E. coli bacteria or GroEL; peptides 20 μg/ml
lymph node cells = assay: Proliferative response of lymph node cells after immunization with the Ec27 peptide; format: in vivo, mice
[2] = test system: splenocytes from WNV-infected mice; assay: Proliferation of splenocytes from WNV-infected mice after in vitro stimulation with peptides; format: cell-based; conditions: in vitro stimulation with peptide
WNV [3] = assay: Protective efficacy of immunization against WNV challenge (mortality); format: in vivo, BALB/c mice
WNV [4] = assay: Virus levels in brain after p32 immunization and WNV challenge (RT-PCR and plaque assay); format: in vivo, mice; conditions: day 7 after challenge with 10^6 pfu WNV; immunized 3 times
WNV-Ag [5] = assay: ELISA of anti-WNV Abs in sera of immunized mice; format: in vivo; conditions: 7 days after 3rd immunization; sera 1:40
Protocol: FIG. 11. Anti-WNV Abs in the sera of mice immunized with different peptides or with WNV Ag. (A) Mice were immunized 3 times with the different peptides or WNV-Ag at 7 day intervals. Seven days after the 3rd immunization mice were bled and sera were tested as follows. Wells were coated with WNV-Ag (1:700 dilution). After blocking and washing, the different sera were added at 1:40 dilution and binding was detected as described in methods (ELISA). Results are the average of 4 independent ELISA experiments. Bars, ±SD. (B) Isotypes of Anti-WNV antibodies.
ELISA tests were performed according to the method described by Martin et al (Martin et al, 2000) with slight modifications. Briefly, microtiter plates were coated and incubated overnight at 4° C. with 100 μl of the different peptides (1 μg/well) or WNV antigen diluted 1:700 in coating buffer (NaHCO3, pH=9.6). After incubation, the coating buffer was decanted and the plates were washed twice in PBS containing 0.05% Tween 20 and 0.2% sodium azide (washing buffer). After blocking for 1 h with a 200 μl/wen of PBS containing 0.05% Tween 20 and 2.5% nonfat dry milk, the plates were washed 4 times in washing buffer and 100 μl of IVIG-IL or mouse sera at 1:40 dilution were added to each well (2-4 wells per sample). […] The color intensity was measured by ELISA-reader (Dynatec MR 5000) at the absorbance of 405 nm. […]

WNV-Ag [6] = assay: Isotypes of anti-WNV antibodies (ELISA); format: in vivo, mice
Protocol: Plates were coated with the WNV-Ag diluted 1:700 in coating buffer. After overnight incubation at 4° C., blocking and washing, various dilutions of mouse sera were added in triplicates. Negative and positive controls of mouse sera were tested in each plate. Total IgG assessment was performed using HRP-Streptavidin-conjugated anti-mouse IgG (SouthernBiotech). For antibody isotype identification, incubation with biotin-conjugated anti-mouse IgG1, IgG2a, IgG2b, IgG3, IgA and IgM antibodies (PharMingen, San Diego, Calif.) was followed by incubation with 1:1000 diluted HRP-Streptavidin (Jackson Laboratories, West Grove, Pa.). After substrate addition the color intensity was measured by ELISA-reader at 405 nm.
Next, it was examined whether p32 immunization and sublethal infection with WNV induce similar isotypes of anti-WNV antibodies. WNV-Ag was used as the antigen in the ELISA plates.

splenocytes [7] = assay: Proliferation of splenocytes from p32-immunized mice after in vitro stimulation; format: in vivo; conditions: in vitro stimulation with WNV antigen
IFNγ = IFNγ secretion of splenocytes from p32-vaccinated mice; format: in vivo; conditions: in vitro stimulation with WNV antigen
[8] = 3 immunizations, 10^6 pfu WNV, 21 days post challenge, 5 experiments
[9] = sera of p32-immunized versus WNV-infected mice

Row | Sequence | Proliferation of spleen cells in the presence of p15 (splenocytes [1]) | IFN-γ secretion of spleen cells in the presence of p15 (IFN-γ) | Proliferative response of draining LNC to GroEL peptide (BALB/c lymph node cells) | Proliferative response of lymph node cells of Ec27-immunized BALB/c mice (lymph node cells; 20 μg Ec27 in IFA s.c., 10 days later) | Proliferative response of mouse strains with different MHC haplotypes (lymph node cells; BALB/c, BALB/k, BALB/b, SJL) | Proliferation of T cells from WNV-infected mice [2] | Mortality (% deaths) (WNV [3]; [8]) | Mortality (dead of total) (WNV [3]; [8]) | Protective efficacy against WNV challenge (WNV [3]; summary of 5 experiments) | Virus levels in the brain (WNV [4]) | WNV-specific Abs in sera (WNV-Ag [5]) | WNV-specific IgA and IgG3 (WNV-Ag [6]; sera of p32-immunized and WNV-infected mice) | Anti-WNV IgG1 and IgG2a levels (WNV-Ag [6]; [9]) | WNV-specific IgG2b levels (WNV-Ag [6]; [9]) | WNV-specific IgM levels (WNV-Ag [6]; [9]) | Proliferation of splenocytes from immunized mice (splenocytes [7]) | IFNγ secretion of splenocytes from immunized mice (IFNγ)
1 | KKARVEDALHATRAAVEEGV [Ec27] | did not induce significant proliferation | did not induce significant proliferation and IFN-γ secretion | highly immunogenic | responded the Ec27 peptide and to the whole GroEL molecule, but not to the control peptide AcR 259-271 | all four different mouse strains responded specifically |  |  |  |  |  |  |  |  |  |  |  | 
2 | NEDQKIGIEIIKRALKILVTVNPFVSVATANS [p32] |  |  |  |  |  | proliferated in response to in vitro stimulation | (10%) | 2/21 | a high degree of protection | no virus was detected | high titer of WNV-specific Abs as compared to immunization with p15 alone | Neither IgA nor IgG3 specific for WNV were detected | similarly high | higher in sera from WNV-infected mice | higher in p32-immunized mice | proliferated in response to in vitro stimulation with WNV antigen | secretion of high levels of IFNγ
